Measurements as given in patent US7695918B2 (priority 2002, dated 2010).
Like-named read-outs stand apart in the source and are kept apart here.

Tests used:
[1] = target: recPrP (recombinant protein prion) (Homo sapiens, UniProt P04156); settings: recPrP 42 μM diluted with an equivalent volume of streptomycin 1 g/ml; dried on mica
protein prion [2] = target: protein prion (Homo sapiens, UniProt P04156); format: binding; settings: LCR
PrP^sc [3] = system: PrP^sc
PrP^sc [4] = settings: precipitates, ESB bovine brain homogenate
protein prion [5] = format: binding, human; settings: 50 μg/ml final concentration streptomycin; LCR(+) at any proteinase K concentration, LCR(−) only without digestion
PrP^sc [6] = format: binding, bovine
PrP^sc [7] = target: PrP^sc (Ovis aries, UniProt P23907); format: binding; settings: 2000 μg streptomycin; PrP^sc from 920 μg sheep brain afflicted with trembling; from increase of apparent molecular weight
Sequence of PrP^sc (Ovis aries, UniProt P23907) (P23907 25-233 limits assumed): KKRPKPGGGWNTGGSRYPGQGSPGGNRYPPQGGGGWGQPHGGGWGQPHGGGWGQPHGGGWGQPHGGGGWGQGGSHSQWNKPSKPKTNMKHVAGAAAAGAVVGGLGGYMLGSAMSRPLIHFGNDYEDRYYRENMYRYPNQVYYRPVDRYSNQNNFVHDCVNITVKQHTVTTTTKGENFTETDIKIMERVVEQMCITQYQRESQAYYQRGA

## [H]/N=C(/N)N[C@H]1[C@H](O)[C@@H](O)[C@H](O[C@@H]2O[C@@H](C)[C@](O)(C=O)[C@H]2O[C@@H]2O[C@@H](CO)[C@H](O)[C@@H](O)[C@@H]2NC)[C@@H](N/C(N)=N\[H])[C@@H]1O [streptomycin]
[1]
  surface organization of the film of the recPrP/streptomycin mixture: amorphous surface
Protein prion [2]; 0.1 g/ml streptomycin, no proteinase K digestion
  apparent size of the protein prion band after streptomycin treatment: approximately 50 kDa
Protein prion [2]; absence of digestion by proteinase K, streptomycin 0.1 and 0.2 g/ml
  binding of streptomycin to the protein prion: bonds well to the protein prion
PrP^sc [3]
  detection of PrP^sc compared with the reference technique: permits better detection of cases that are slightly positive
PrP^sc [4]; 5 μl streptomycin, without streptomycin the limit is 1/16
  dilution down to which PrP^sc is detectable: 1/128
PrP^sc [4]; 10 μl streptomycin, most diluted sample tested
  dilution down to which PrP^sc is detectable: 1/256
Protein prion [5]
  apparent molecular mass of the band observed after streptomycin treatment: approximately 35 kDa
PrP^sc [6]; 20 μl streptomycin at 1 g/ml, 100 μl bovine brain suspension after proteinase K, second hour at 37° C.
  precipitation of PrP^sc: totally precipitated the PrP^sc
PrP^sc [6]; brain sample diluted 1/25, proteinase K and streptomycin added simultaneously, one hour incubation
  location of PrP^sc bands (supernatant or bottom): in the bottom in the presence of any concentration of streptomycin
PrP^sc [7]
  number of streptomycin molecules attached per band of PrP^sc: 10 to 12 molecules of streptomycin per band of PrP^sc
